Results as given in patent US20060069132A1, “Azolecarboxamide herbicides” (priority 2004, published 2006).

Columns and labels:
[1] = test system: blackgrass; assay: Test B postemergence herbicide test; type: in vivo, Alopecurus myosuroides; conditions: scale 0 (no effect) to 100 (complete control)
In short: (§1)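 Treated at 2-leaf (paddy) or 1–4-leaf, 2–18 cm (postemergence); greenhouse 13–15 d; visual score vs control, 0 none to 100 complete control; dash = not tested.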

[2] = test system: wheat; assay: Test B postemergence herbicide test; type: in vivo, Triticum aestivum; parameters: key to Wheat plant response rating: 0 = no effect, 100 = complete control; conditions: scale 0 (no effect) to 100 (complete control)
In short: as §1

[3] = test system: giant foxtail; assay: Test B pre-/postemergence herbicide test; type: in vivo, Setaria faberi
In short: (§2)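 Response was scored visually 13 to 15 days after treatment against untreated greenhouse controls, 0 meaning no effect and 100 complete control. Formulations (solvent mixture plus surfactant) went onto soil after planting, onto foliage of 1- to 4-leaf plants, and onto 2-leaf plants in a flooded paddy set including rice and barnyardgrass.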

[4] = test system: redroot pigweed; assay: Test A pre-/postemergence herbicide test; type: in vivo, Amaranthus retroflexus
In short: (§3)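 Visual injury rating on a 0–100 scale (0 no effect, 100 complete control) versus untreated controls, about ten days after treatment in greenhouse. Pre: directed soil spray onto seeded sandy loam. Post: spray to runoff on plants 2–10 cm tall at one- to two-leaf stage.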

[5] = test system: barnyardgrass; assay: Test B flooded paddy test; type: in vivo, Echinochloa crus-galli; conditions: 1000 g ai/ha, visual rating, scale 0 to 100 (0 no effect, 100 complete control), 13 to 15 days
In short: as §1

[6] = test system: pigweed; assay: Test B pre-/postemergence herbicide test; type: in vivo, Amaranthus retroflexus
In short: as §2

[7] = test system: lambsquarters; assay: Test B pre-/postemergence herbicide test; type: in vivo, Chenopodium album
In short: as §2

[8] = test system: rice; assay: Test B pre-/postemergence herbicide test; type: in vivo, Oryza sativa; conditions: preemergence
In short: as §2

[9] = test system: wild oat; assay: Test B postemergence herbicide test; type: in vivo, Avena fatua; conditions: scale 0 (no effect) to 100 (complete control)
In short: as §1

[10] = test system: velvetleaf; assay: Test A pre-/postemergence herbicide test; type: in vivo, Abutilon theophrasti
In short: as §3

[11] = test system: ducksalad; assay: Test B flooded paddy test; type: in vivo, Heteranthera limosa; conditions: 1000 g ai/ha, visual rating, scale 0 to 100 (0 no effect, 100 complete control), 13 to 15 days
In short: as §1

[12] = test system: barnyardgrass; assay: Test B pre-/postemergence herbicide test; type: in vivo, Echinochloa crus-galli
In short: (§4)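 Herbicidal effect was judged by eye on a 0–100 scale after plants stood 13 to 15 days in the greenhouse following pre- or postemergence treatment with surfactant-containing formulations.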

[13] = test system: Surinam grass; assay: Test B pre-/postemergence herbicide test; type: in vivo, Urochloa decumbens
In short: as §2

[14] = test system: morningglory; assay: Test B pre-/postemergence herbicide test; type: in vivo, Ipomoea coccinea
In short: as §4

[15] = test system: barnyardgrass; assay: Test A pre-/postemergence herbicide test; type: in vivo, Echinochloa crus-galli
In short: as §3

[16] = test system: small flower umbrella sedge; assay: Test B flooded paddy test; type: in vivo, Cyperus difformis; conditions: 1000 g ai/ha, visual rating, scale 0 to 100 (0 no effect, 100 complete control), 13 to 15 days
In short: as §1

[17] = test system: velvetleaf; assay: Test B pre-/postemergence herbicide test; type: in vivo, Abutilon theophrasti
In short: as §2

[18] = test system: corn; assay: Test B pre-/postemergence herbicide test; type: in vivo, Zea mays
In short: as §2

[19] = test system: large crabgrass; assay: Test B pre-/postemergence herbicide test; type: in vivo, Digitaria sanguinalis
In short: as §2

[20] = test system: giant foxtail; assay: Test A pre-/postemergence herbicide test; type: in vivo, Setaria faberi
In short: as §3

[21] = test system: rice; assay: Test B flooded paddy test; type: in vivo, Oryza sativa; conditions: 1000 g ai/ha, visual rating, scale 0 to 100 (0 no effect, 100 complete control), 13 to 15 days
In short: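 Postemergence plants were sprayed with formulated test chemicals at 2 to 18 cm height (1- to 4-leaf stage); paddy species were grown to the 2-leaf stage. After 13 to 15 days in a greenhouse, injury was rated visually against untreated controls on a 0–100 scale (0 = no effect, 100 = complete control).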

[22] = test system: cocklebur; assay: Test B pre-/postemergence herbicide test; type: in vivo, Xanthium strumarium
In short: as §4

[23] = test system: large crabgrass; assay: Test A pre-/postemergence herbicide test; type: in vivo, Digitaria sanguinalis
In short: as §3

[24] = test system: morningglory; assay: Test A pre-/postemergence herbicide test; type: in vivo, Ipomoea spp.
In short: as §3

[25] = Postemergence, 500 g ai/ha, visual rating after 13 to 15 days
[26] = postemergence, 125 g ai/ha, visual rating
[27] = 500 g ai/ha, visual rating 0-100, 0 no effect, 100 complete control, preemergence
[28] = Postemergence, 500 g ai/ha, visual rating after 13 to 15 days, scale 0 (no effect) to 100 (complete control)
[29] = postemergence, 125 g ai/ha, visual rating, scale 0 (no effect) to 100 (complete control)
[30] = preemergence, 125 g ai/ha, 0 to 100 scale, 0 is no effect, 100 is complete control
[31] = Postemergence, 500 g ai/ha, 0 to 100 scale, 0 no effect, 100 complete control
[32] = Postemergence, 2000 g ai/ha, 0 to 100 scale, 0 no effect, 100 complete control
[33] = Preemergence, 500 g ai/ha, visual rating, 0 to 100 scale (0 no effect, 100 complete control)
[34] = Preemergence, 2000 g ai/ha, 0 to 100 scale, 0 no effect, 100 complete control

CCCOC(=O)c1cccc(NC(=O)c2cc(C(C)(C)C)nn2CC)c1C [Compound 90]
Plant response rating, Blackgrass [1, 25]: 10
Blackgrass plant response rating [1, 26]: 0
Plant response rating, Wheat [2, 25]: 10
Wheat plant response rating [2, 26]: 10
Plant response rating, Foxtail, Giant [3, 27]: 60
Plant response rating, Foxtail, Giant [3, 28]: 10
Foxtail, Giant plant response rating [3, 29]: 10
Plant response rating, Foxtail, Giant [3, 30]: 10
Pigweed plant response rating [4, 31]: 20
Plant response rating, Pigweed [4, 32]: 40
Pigweed plant response rating [4, 33]: 25
Pigweed plant response rating [4, 34]: 70
Barnyardgrass plant response rating [5]: 10
Plant response rating, Pigweed [6, 27]: 80
Plant response rating, Pigweed [6, 28]: 40
Pigweed plant response rating [6, 29]: 30
Plant response rating, Pigweed [6, 30]: 10
Plant response rating, Lambsquarters [7, 27]: 90
Plant response rating, Lambsquarters [7, 28]: 50
Lambsquarters plant response rating [7, 29]: 50
Plant response rating, Lambsquarters [7, 30]: 0
Plant response rating, Rice ([8]; 500 g ai/ha, visual rating 0-100, 0 no effect, 100 complete control): 0
Plant response rating, Rice ([8]; 125 g ai/ha, 0 to 100 scale, 0 is no effect, 100 is complete control): 0
Plant response rating, Oat, Wild [9, 25]: 30
Oat, Wild plant response rating [9, 26]: 10
Velvetleaf plant response rating [10, 31]: 10
Plant response rating, Velvetleaf [10, 32]: 30
Velvetleaf plant response rating [10, 33]: 20
Velvetleaf plant response rating ([10]; Preemergence, 2000 g ai/ha, visual rating, 0 to 100 scale (0 no effect, 100 complete control)): 35
Ducksalad plant response rating [11]: 30
Plant response rating, Barnyardgrass [12, 27]: 20
Plant response rating, Barnyardgrass [12, 28]: 30
Barnyardgrass plant response rating [12, 29]: 0
Plant response rating, Barnyardgrass [12, 30]: 10
Plant response rating, Surinam Grass [13, 27]: 20
Plant response rating, Surinam Grass [13, 28]: 10
Surinam Grass plant response rating [13, 29]: 10
Plant response rating, Surinam Grass [13, 30]: 0
Plant response rating, Morningglory [14, 27]: 10
Plant response rating, Morningglory [14, 28]: 40
Morningglory plant response rating [14, 29]: 10
Plant response rating, Morningglory [14, 30]: 0
Barnyardgrass plant response rating [15, 31]: 20
Plant response rating, Barnyardgrass [15, 32]: 20
Barnyardgrass plant response rating [15, 33]: 20
Barnyardgrass plant response rating [15, 34]: 50
Sedge, Umbrella plant response rating [16]: 50
Plant response rating, Velvetleaf [17, 27]: 20
Plant response rating, Velvetleaf [17, 28]: 30
Velvetleaf plant response rating [17, 29]: 10
Plant response rating, Velvetleaf [17, 30]: 0
Plant response rating, Corn [18, 27]: 20
Plant response rating, Corn [18, 28]: 10
Corn plant response rating [18, 29]: 10
Plant response rating, Corn [18, 30]: 0
Plant response rating, Crabgrass, Large [19, 27]: 70
Plant response rating, Crabgrass, Large [19, 28]: 10
Crabgrass, Large plant response rating [19, 29]: 10
Plant response rating, Crabgrass, Large [19, 30]: 10
Foxtail, Giant plant response rating [20, 31]: 20
Plant response rating, Foxtail, Giant [20, 32]: 20
Foxtail, Giant plant response rating [20, 33]: 25
Foxtail, Giant plant response rating [20, 34]: 60
Rice plant response rating [21]: 10
Plant response rating, Cocklebur [22, 27]: 0
Plant response rating, Cocklebur [22, 28]: 60
Cocklebur plant response rating [22, 29]: 10
Plant response rating, Cocklebur [22, 30]: 0
Crabgrass, Large plant response rating [23, 31]: 15
Plant response rating, Crabgrass, Large [23, 32]: 25
Crabgrass, Large plant response rating [23, 33]: 35
Crabgrass, Large plant response rating [23, 34]: 75
Morningglory plant response rating [24, 31]: 10
Plant response rating, Morningglory [24, 32]: 10
Morningglory plant response rating [24, 33]: 0
Morningglory plant response rating [24, 34]: 30
